Source: ChEMBL document CHEMBL1201862, “PubChem BioAssay data set” (2004)
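Cells were grown in 96-well plates and exposed to each compound for 48 hours at five concentrations; endpoints were interpolated linearly between bracketing concentrations, or set to the highest concentration if not reached. At the GI50, growth is halved.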 Activity calls are given as the source filed them. No stated cut-off is given here; in the data, active = GI50 up to about 1.1 µM and inactive = higher.

Columns and labels:
Test in all cases: NCI tumour cell line growth inhibition, 48 h
CCRF-CEM = system: CCRF-CEM
COLO 205 = system: COLO 205
DU-145 = system: DU-145
HCT-116 = system: HCT-116
HL-60 = system: HL-60
HOP-92 = system: HOP-92
HT-29 = system: HT-29
Hs-578T = system: Hs-578T
NCI-H226 = system: NCI-H226
NCI/ADR-RES = system: NCI/ADR-RES
OVCAR-4 = system: OVCAR-4
OVCAR-8 = system: OVCAR-8
SF-295 = system: SF-295
SK-MEL-28 = system: SK-MEL-28
SK-MEL-2 = system: SK-MEL-2
UO-31 = system: UO-31
SK-MEL-5 = system: SK-MEL-5
TK-10 = system: TK-10
MDA-N = system: MDA-N

| SMILES | GI50 (CCRF-CEM) | GI50 (COLO 205) | GI50 (DU-145) | GI50 (HCT-116) | GI50 (HL-60) | GI50 (HOP-92) | GI50 (HT-29) | GI50 (Hs-578T) | GI50 (NCI-H226) | GI50 (NCI/ADR-RES) | GI50 (OVCAR-4) | GI50 (OVCAR-8) | GI50 (SF-295) | GI50 (SK-MEL-28) | GI50 (SK-MEL-2) | GI50 (UO-31) | GI50 (SK-MEL-5) | GI50 (TK-10) | GI50 (MDA-N) |
| --- | --- | --- | --- | --- | --- | --- | --- | --- | --- | --- | --- | --- | --- | --- | --- | --- | --- | --- | --- |
| O=[N+]([O-])C(=C(Nc1ccccc1)Nc1ccccc1)/C(Cl)=C(\Cl)Br | 2.15 µM (inactive) | > 10 µM (inactive) | 16.5 µM (inactive) | 6.05 µM (inactive) | 1.76 µM (inactive) | 17.7 µM (inactive) | 16.2 µM (inactive) | 27 µM (inactive) | 0.671 µM (active) | 9.48 µM (inactive) | 11.9 µM (inactive) | 16.5 µM (inactive) | 14.8 µM (inactive) | 13.6 µM (inactive) | 18 µM (inactive) | 10.1 µM (inactive) | – | – | – |
| CCNCCNC(=O)c1ccc(Br)cc1 | > 100 µM (inactive) | – | – | – | > 100 µM (inactive) | > 100 µM (inactive) | > 100 µM (inactive) | > 100 µM (inactive) | > 100 µM (inactive) | > 100 µM (inactive) | > 100 µM (inactive) | > 100 µM (inactive) | – | > 100 µM (inactive) | – | > 100 µM (inactive) | > 100 µM (inactive) | > 100 µM (inactive) | – |
| CCC(=O)c1cn(C)c(=O)c2ccccc12 | > 100 µM (inactive) | > 100 µM (inactive) | – | – | > 100 µM (inactive) | > 100 µM (inactive) | > 100 µM (inactive) | – | > 100 µM (inactive) | – | > 100 µM (inactive) | > 100 µM (inactive) | > 100 µM (inactive) | > 100 µM (inactive) | > 100 µM (inactive) | > 100 µM (inactive) | > 100 µM (inactive) | > 100 µM (inactive) | – |
| Cc1cc2ncc3c(=O)n(NS(=O)(=O)c4ccc(N)cc4)ccc3n2n1 | > 100 µM (inactive) | > 100 µM (inactive) | > 100 µM (inactive) | > 100 µM (inactive) | > 100 µM (inactive) | 54.2 µM (inactive) | > 100 µM (inactive) | > 100 µM (inactive) | > 100 µM (inactive) | – | > 100 µM (inactive) | > 100 µM (inactive) | > 100 µM (inactive) | > 100 µM (inactive) | > 100 µM (inactive) | > 100 µM (inactive) | > 100 µM (inactive) | > 100 µM (inactive) | > 100 µM (inactive) |
| CO/N=C(\C(=O)Nn1cn[n+](CC(=O)[O-])c1)c1csc(N)n1 | > 10 µM (inactive) | > 10 µM (inactive) | > 10 µM (inactive) | > 10 µM (inactive) | > 10 µM (inactive) | > 10 µM (inactive) | > 10 µM (inactive) | – | – | – | > 10 µM (inactive) | > 10 µM (inactive) | – | > 10 µM (inactive) | – | – | > 10 µM (inactive) | > 10 µM (inactive) | > 10 µM (inactive) |
| O=C(CC1(O)C(=O)Nc2ccccc21)c1ccco1 (stereo unspecified) | – | > 100 µM (inactive) | – | > 100 µM (inactive) | > 100 µM (inactive) | > 100 µM (inactive) | > 100 µM (inactive) | – | > 100 µM (inactive) | – | > 100 µM (inactive) | > 100 µM (inactive) | > 100 µM (inactive) | > 100 µM (inactive) | > 100 µM (inactive) | > 100 µM (inactive) | > 100 µM (inactive) | > 100 µM (inactive) | – |
| Cc1cc(Cl)ccc1C(=O)c1ccc2ccccc2c1C(=O)O | > 100 µM (inactive) | > 100 µM (inactive) | > 100 µM (inactive) | > 100 µM (inactive) | > 100 µM (inactive) | > 100 µM (inactive) | > 100 µM (inactive) | – | > 100 µM (inactive) | > 100 µM (inactive) | > 100 µM (inactive) | > 100 µM (inactive) | 98.9 µM (inactive) | > 100 µM (inactive) | > 100 µM (inactive) | > 100 µM (inactive) | > 100 µM (inactive) | > 100 µM (inactive) | > 100 µM (inactive) |
| COc1ccc(NC(=O)CC(=O)n2nc(-c3ccccc3)c(/N=N/c3ccccc3C(=O)O)c2-c2ccccc2)cc1 | > 100 µM (inactive) | > 100 µM (inactive) | – | > 100 µM (inactive) | – | 18.5 µM (inactive) | – | – | 69.3 µM (inactive) | – | 92.5 µM (inactive) | 25.2 µM (inactive) | 42.4 µM (inactive) | 74.5 µM (inactive) | > 100 µM (inactive) | > 100 µM (inactive) | > 100 µM (inactive) | > 100 µM (inactive) | – |
| c1ccc(-c2nnc(CCCCCCCCc3nnc(-c4ccccc4)o3)o2)cc1 | 52.5 µM (inactive) | > 100 µM (inactive) | > 100 µM (inactive) | 55.6 µM (inactive) | 30.6 µM (inactive) | 50.9 µM (inactive) | 45.1 µM (inactive) | – | > 100 µM (inactive) | > 100 µM (inactive) | > 100 µM (inactive) | > 100 µM (inactive) | > 100 µM (inactive) | > 100 µM (inactive) | > 100 µM (inactive) | > 100 µM (inactive) | > 100 µM (inactive) | > 100 µM (inactive) | – |
